The values below come from patent publication US20220033397A1, “PHARMACEUTICAL COMPOUNDS AND THEIR USE AS INHIBITORS OF UBIQUITIN SPECIFIC PROTEASE 19 (USP19)” (ALMAC DISCOVERY LIMITED, priority 2018, published 2022).

By IC50 is commonly meant the concentration that gives 50% inhibition.

The target in the assay is T1, Full-length USP19 (Homo sapiens, UniProt O94966).
T1 construct: Full-length USP19 was purchased from Boston Biochem (E-576); purchased Boston Biochem E-576
T1 sequence (O94966 1-1318): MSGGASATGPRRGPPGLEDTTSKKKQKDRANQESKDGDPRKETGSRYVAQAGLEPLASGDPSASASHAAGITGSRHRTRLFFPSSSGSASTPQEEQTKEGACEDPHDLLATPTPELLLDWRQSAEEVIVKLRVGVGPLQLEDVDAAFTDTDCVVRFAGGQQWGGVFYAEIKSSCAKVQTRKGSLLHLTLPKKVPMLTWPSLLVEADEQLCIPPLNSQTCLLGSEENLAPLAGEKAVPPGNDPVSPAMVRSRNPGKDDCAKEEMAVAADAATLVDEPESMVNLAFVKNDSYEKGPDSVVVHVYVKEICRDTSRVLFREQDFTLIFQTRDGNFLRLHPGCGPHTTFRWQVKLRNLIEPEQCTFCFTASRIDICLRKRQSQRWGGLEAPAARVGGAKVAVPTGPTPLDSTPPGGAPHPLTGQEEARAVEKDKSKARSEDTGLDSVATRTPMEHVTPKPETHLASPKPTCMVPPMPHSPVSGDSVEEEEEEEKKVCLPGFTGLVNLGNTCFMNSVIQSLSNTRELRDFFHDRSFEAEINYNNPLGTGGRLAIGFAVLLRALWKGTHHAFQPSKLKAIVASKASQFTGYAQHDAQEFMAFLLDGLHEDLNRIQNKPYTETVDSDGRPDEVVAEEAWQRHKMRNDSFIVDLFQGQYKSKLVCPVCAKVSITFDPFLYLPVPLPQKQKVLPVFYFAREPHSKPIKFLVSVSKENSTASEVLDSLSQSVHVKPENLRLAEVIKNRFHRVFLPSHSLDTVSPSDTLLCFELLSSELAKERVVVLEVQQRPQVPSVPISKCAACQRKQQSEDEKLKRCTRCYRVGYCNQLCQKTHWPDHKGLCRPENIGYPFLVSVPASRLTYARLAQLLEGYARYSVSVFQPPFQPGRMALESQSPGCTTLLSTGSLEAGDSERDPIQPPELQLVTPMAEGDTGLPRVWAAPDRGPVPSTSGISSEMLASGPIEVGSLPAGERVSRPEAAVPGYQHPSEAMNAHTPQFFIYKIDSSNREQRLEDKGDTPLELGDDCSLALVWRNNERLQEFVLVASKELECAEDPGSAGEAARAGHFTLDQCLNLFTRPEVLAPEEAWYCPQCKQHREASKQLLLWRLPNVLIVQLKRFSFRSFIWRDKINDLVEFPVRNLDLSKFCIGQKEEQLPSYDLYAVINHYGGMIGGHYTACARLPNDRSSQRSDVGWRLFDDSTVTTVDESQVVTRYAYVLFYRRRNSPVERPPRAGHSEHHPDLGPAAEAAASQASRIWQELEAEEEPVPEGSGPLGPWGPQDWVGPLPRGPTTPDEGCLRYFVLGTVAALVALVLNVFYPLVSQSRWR
The assay can be described thus: USP19 fluorescence polarisation (FP) homogeneous assay with Ubiquitin-Lys-TAMRA substrate. The format is biochemical. The conditions noted are these: 2.5 nM USP19, 30 min pre-incubation, average of at least two duplicate experiments. A digest of the protocol: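 Full-length USP19 preincubated 30 min at RT with inhibitor (200 μM to 2 μM series, 8–18 points) before adding 500 nM Ubiquitin-Lys-TAMRA substrate.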
A general note: Fluorescence polarisation rises when a labelled molecule tumbles more slowly, as on binding a larger partner.

Where only a bound is given, the exact number is not on record here.

For the compound `O=C(NCC1(F)CCC1)N1CC[C@@](O)(Cn2cnc(-c3ccccc3)cc2=O)C2(CCCC2)C1` [Example 312, (S)—N-((1-Fluorocyclobutyl)methyl)-10-hydroxy-10-((6-oxo-4-phenylpyrimidin-1(6H)-yl)methyl)-7-azaspiro[4.5]decane-7-carboxamide], the 50% inhibitory concentration (IC50) is 5 to 50 µM.
Then `O=C(N1CC[C@@](O)(Cn2cnc(-c3ccccc3)cc2=O)C2(CCCC2)C1)N1CCOC[C@H]1c1ccc(F)cc1` [Example 228, 3-(((S)-7-((R)-3-(4-Fluorophenyl)morpholine-4-carbonyl)-10-hydroxy-7-azaspiro[4.5]decan-10-yl)methyl)-6-phenylpyrimidin-4(3H)-one], with under 0.5 µM; and `COc1ncc2c(=O)n(CC3(O)CCN(C(=O)[C@H](C)CC(F)(F)F)CC34CCCC4)ccc2n1` (stereo partly drawn) [Example 59, 6-((10-Hydroxy-7-((R)-4,4,4-trifluoro-2-methylbutanoyl)-7-azaspiro[4.5]decan-10-yl)methyl)-2-methoxypyrido[4,3-d]pyrimidin-5(6H)-one], with 5 to 50 µM.
Then `COc1ccc2c(=O)n(CC3(O)CCN(C(=O)[C@H](C)CC(F)(F)F)CC34CCCC4)cnc2c1` (stereo partly drawn) [Example 133, 3-((10-Hydroxy-7-((R)-4,4,4-trifluoro-2-methylbutanoyl)-7-azaspiro[4.5]decan-10-yl)methyl)-7-methoxyquinazolin-4(3H)-one], with 5 to 50 µM; and `O=C(N1CCC(O)(Cn2cnc3ccc(F)cc3c2=O)C2(CCCC2)C1)N1CCNC[C@H]1c1ccccc1` (stereo partly drawn) [Example 169, 6-Fluoro-3-((10-hydroxy-7-((R)-2-phenylpiperazine-1-carbonyl)-7-azaspiro[4.5]decan-10-yl)methyl)quinazolin-4(3H)-one], with under 0.5 µM; and `C[C@H](CC1CCCCC1)C(=O)N1CCC(O)(CN2CC(Cc3ccccc3)CC2=O)C(C)(C)C1` (stereo partly drawn) [Example 30, 4-Benzyl-1-((1-((R)-3-cyclohexyl-2-methylpropanoyl)-4-hydroxy-3,3-dimethylpiperidin-4-yl)methyl)pyrrolidin-2-one], with 0.5 to 5 µM.
For `O=C(N1CC[C@@](O)(Cn2cnc(N3CC(F)(F)C3)cc2=O)C2(CCCC2)C1)N1CCNC[C@H]1c1ccccc1` [Example 357, 6-(3,3-Difluoro-azetidin-1-yl)-3-(((S)-10-hydroxy-7-((R)-2-phenylpiperazine-1-carbonyl)-7-aza-spiro[4.5]decan-10-yl)methyl)pyrimidin-4(3H)-one] the value was under 0.5 µM; for `Cn1nccc1-c1cc(=O)n(CC2(O)CCN(C(=O)NCc3ccccc3)CC23CCCC3)cn1` (stereo not drawn) [Example 205, N-Benzyl-10-hydroxy-10-((4-(1-methyl-1H-pyrazol-5-yl)-6-oxopyrimidin-1(6H)-yl)methyl)-7-azaspiro[4.5]decane-7-carboxamide], 0.5 to 5 µM; for `C[C@H](CC(F)(F)F)C(=O)N1CCC(O)(Cn2ccc3ccncc3c2=O)C2(CCCC2)C1` (stereo partly drawn) [Example 136, 2-((10-Hydroxy-7-((R)-4,4,4-trifluoro-2-methylbutanoyl)-7-azaspiro[4.5]decan-10-yl)methyl)-2,7-naphthyridin-1(2H)-one], 5 to 50 µM.
As for `CS(=O)(=O)c1cn(CC2(O)CCN(C(=O)N3CCNC[C@H]3c3ccccc3)CC23CCCC3)c(=O)cc1-c1ccccc1` (stereo partly drawn) [Example 188, 1-((10-Hydroxy-7-((R)-2-phenylpiperazine-1-carbonyl)-7-azaspiro[4.5]decan-10-yl)methyl)-5-(methylsulfonyl)-4-phenylpyridin-2(1H)-one], the IC50 was under 0.5 µM.
For the compound `CC(NC(=O)N1CCC(O)(Cn2cnc(-c3ccccc3)cc2=O)C2(CCCC2)C1)c1ccoc1` (stereo not drawn) [Example 255, N-(1-(Furan-3-yl)ethyl)-10-hydroxy-10-((6-oxo-4-phenylpyrimidin-1(6H)-yl)methyl)-7-azaspiro[4.5]decane-7-carboxamide], the half-inhibitory concentration (IC50) fell in the range of 0.5 to 5 µM.
Then `C[C@H](CC1CCCCC1)C(=O)N1CCC(O)(Cn2cc(S(C)(=N)=O)c(-c3ccccc3)cc2=O)C(C)(C)C1` (stereo partly drawn) [Example 68, 1-((1-((R)-3-Cyclohexyl-2-methylpropanoyl)-4-hydroxy-3,3-dimethylpiperidin-4-yl)methyl)-5-(S-methylsulfonimidoyl)-4-phenylpyridin-2(1H)-one], with 0.5 to 5 µM; and `CC(C)COC(=O)N1CCC(O)(Cn2cc(C(=O)N(C)C)c(-c3ccccc3)cc2=O)C2(CCCC2)C1` (stereo not drawn) [Example 84, Isobutyl 10-((5-(dimethylcarbamoyl)-2-oxo-4-phenylpyridin-1(2H)-yl)methyl)-10-hydroxy-7-azaspiro[4.5]decane-7-carboxylate], with 5 to 50 µM.
Consider `COc1c(F)cccc1-c1cc(=O)n(C[C@]2(O)CCN(C(=O)N3CCNC[C@H]3c3ccccc3)CC23CCCC3)cn1` [Example 383, 6-(3-Fluoro-2-methoxyphenyl)-3-(((S)-10-hydroxy-7-((R)-2-phenyl-piperazine-1-carbonyl)-7-aza-spiro[4.5]decan-10-yl)methyl)pyrimidin-4(3H)-one], for which the 50% inhibitory concentration (IC50) is under 0.5 µM.
On to `COc1ccc2ccn(CC3(O)CCN(C(=O)[C@H](C)CC4CCCCC4)CC34CCCC4)c(=O)c2c1` (stereo partly drawn) [Example 127, 2-((7-((R)-3-Cyclohexyl-2-methylpropanoyl)-10-hydroxy-7-azaspiro[4.5]decan-10-yl)methyl)-7-methoxyisoquinolin-1(2H)-one], for which the concentration for half-maximal inhibition (IC50) was 0.5 to 5 µM.
Then `Cc1cn(CC2(O)CCN(C(=O)[C@H](C)CC3CCCCC3)CC2(C)C)c(=O)cn1` (stereo partly drawn) [Example 21, 1-((1-((R)-3-Cyclohexyl-2-methylpropanoyl)-4-hydroxy-3,3-dimethylpiperidin-4-yl)methyl)-5-methylpyrazin-2(1H)-one], with 5 to 50 µM.
Then `O=C(N1CC[C@@](O)(Cn2cnc(-c3ccccc3)cc2=O)C2(CCCC2)C1)N1CCOC[C@H]1c1ccccc1` [Example 211, 3-(((S)-10-Hydroxy-7-((R)-3-phenylmorpholine-4-carbonyl)-7-azaspiro[4.5]decan-10-yl)methyl)-6-phenylpyrimidin-4(3H)-one], with under 0.5 µM.
Then `O=C(NCc1ccccc1)N1CCC(O)(Cn2cnc(N3CCOCC3)cc2=O)C2(CCCC2)C1` (stereo not drawn) [Example 203, N-Benzyl-10-hydroxy-10-((4-morpholino-6-oxopyrimidin-1(6H)-yl)methyl)-7-azaspiro[4.5]decane-7-carboxamide], with 50 to 250 µM.
For `O=C(N1CC[C@@](O)(Cn2cnc(-c3ccccc3)cc2=O)C2(CCCC2)C1)N1CCNC[C@H]1c1ccccc1` [Example 278, 3-(((S)-10-Hydroxy-7-((R)-2-phenylpiperazine-1-carbonyl)-7-azaspiro[4.5]decan-10-yl)methyl)-6-phenylpyrimidin-4(3H)-one], the half-maximal inhibitory concentration (IC50) was under 0.5 µM.
`C[C@H](CC(F)(F)F)C(=O)N1CCC(O)(Cn2cnc3c(cnn3-c3ccccc3)c2=O)C2(CCCC2)C1` (stereo partly drawn) [Example 177, 5-((10-Hydroxy-7-((R)-4,4,4-trifluoro-2-methylbutanoyl)-7-azaspiro[4.5]decan-10-yl)methyl)-1-phenyl-1,5-dihydro-4H-pyrazolo[3,4-d]pyrimidin-4-one]: the 50% inhibitory concentration (IC50) is 5 to 50 µM.
Take `Cn1cc(-c2cc(=O)n(CC3(O)CCN(C(=O)NCc4ccccc4)CC34CCCC4)cn2)cn1` (stereo not drawn) [Example 204, N-Benzyl-10-hydroxy-10-((4-(1-methyl-1H-pyrazol-4-yl)-6-oxopyrimidin-1(6H)-yl)methyl)-7-azaspiro[4.5]decane-7-carboxamide]: the IC50 lay within 5 to 50 µM.
